In US9340590B2 (priority 2011, dated 2016):
Like-named read-outs stand apart in the source and are kept apart here. Positions of bridges follow the written chain, without caps; N, C: chain ends. Residues, ends and D or L forms follow the SMILES beside them. No end group written: not given here.

Target: hNav1.7 (Homo sapiens, UniProt Q15858)
Assay: cell-based
Assay type: cell-based
Details: for IC50: read-out: IWQ Use Nav1.7
[1] = IonWorks Quattro, clamped to −110 mV, depolarized to −10 mV, 5 min after compound, n=2

Chain of hNav1.7 (Q15858 whole entry, looked up): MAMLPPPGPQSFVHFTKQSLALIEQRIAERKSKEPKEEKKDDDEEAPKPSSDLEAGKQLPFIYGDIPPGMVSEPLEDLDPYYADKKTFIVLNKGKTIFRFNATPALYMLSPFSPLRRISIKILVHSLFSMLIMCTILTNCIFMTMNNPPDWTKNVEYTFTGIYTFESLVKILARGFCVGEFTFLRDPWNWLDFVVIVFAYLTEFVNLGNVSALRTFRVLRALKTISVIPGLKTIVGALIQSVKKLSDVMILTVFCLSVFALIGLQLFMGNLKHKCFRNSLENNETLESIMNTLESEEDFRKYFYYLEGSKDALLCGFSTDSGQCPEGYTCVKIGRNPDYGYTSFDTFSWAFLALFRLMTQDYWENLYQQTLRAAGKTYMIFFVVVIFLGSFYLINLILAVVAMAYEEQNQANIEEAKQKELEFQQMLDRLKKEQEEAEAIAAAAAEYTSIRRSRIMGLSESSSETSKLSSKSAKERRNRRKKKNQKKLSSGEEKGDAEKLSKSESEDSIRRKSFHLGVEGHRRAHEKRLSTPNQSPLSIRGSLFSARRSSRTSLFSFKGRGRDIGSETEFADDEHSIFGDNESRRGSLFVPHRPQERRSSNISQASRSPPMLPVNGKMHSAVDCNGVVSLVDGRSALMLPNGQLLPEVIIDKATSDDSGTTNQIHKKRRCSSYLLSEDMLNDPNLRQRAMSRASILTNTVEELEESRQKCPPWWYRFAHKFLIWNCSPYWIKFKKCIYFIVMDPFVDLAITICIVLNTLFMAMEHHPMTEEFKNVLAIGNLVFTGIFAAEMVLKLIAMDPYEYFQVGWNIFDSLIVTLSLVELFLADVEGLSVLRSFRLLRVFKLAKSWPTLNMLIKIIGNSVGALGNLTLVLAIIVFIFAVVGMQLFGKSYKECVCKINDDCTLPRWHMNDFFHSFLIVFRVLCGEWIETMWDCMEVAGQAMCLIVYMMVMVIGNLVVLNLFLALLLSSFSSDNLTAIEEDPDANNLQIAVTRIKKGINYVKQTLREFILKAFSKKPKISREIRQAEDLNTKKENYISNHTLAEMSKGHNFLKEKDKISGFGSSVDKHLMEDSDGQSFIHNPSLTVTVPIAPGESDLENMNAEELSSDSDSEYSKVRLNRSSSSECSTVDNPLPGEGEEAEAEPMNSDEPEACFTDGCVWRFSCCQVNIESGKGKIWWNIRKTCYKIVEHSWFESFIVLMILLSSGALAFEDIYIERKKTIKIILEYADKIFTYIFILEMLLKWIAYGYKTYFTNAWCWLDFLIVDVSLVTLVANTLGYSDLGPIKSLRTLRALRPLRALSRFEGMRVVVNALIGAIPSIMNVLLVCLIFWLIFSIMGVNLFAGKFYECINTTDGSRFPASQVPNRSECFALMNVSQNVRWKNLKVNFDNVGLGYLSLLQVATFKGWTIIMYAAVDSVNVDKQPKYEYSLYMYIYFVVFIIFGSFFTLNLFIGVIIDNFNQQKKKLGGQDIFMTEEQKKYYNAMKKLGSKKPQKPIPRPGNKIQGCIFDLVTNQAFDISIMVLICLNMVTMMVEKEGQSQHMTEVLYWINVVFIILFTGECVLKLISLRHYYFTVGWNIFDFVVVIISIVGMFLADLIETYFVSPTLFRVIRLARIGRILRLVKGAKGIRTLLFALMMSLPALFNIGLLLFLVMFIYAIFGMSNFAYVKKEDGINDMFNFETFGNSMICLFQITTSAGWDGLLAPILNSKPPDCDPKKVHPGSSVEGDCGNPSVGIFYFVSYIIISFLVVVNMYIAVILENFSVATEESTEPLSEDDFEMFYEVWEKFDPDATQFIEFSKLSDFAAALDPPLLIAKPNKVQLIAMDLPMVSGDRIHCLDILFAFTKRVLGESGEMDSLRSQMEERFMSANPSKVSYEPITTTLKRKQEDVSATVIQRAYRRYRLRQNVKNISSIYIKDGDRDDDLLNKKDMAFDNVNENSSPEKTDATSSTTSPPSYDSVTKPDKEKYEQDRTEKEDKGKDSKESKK

Row | Compound | IC50 | IC50 [1] | other results
1 | CSCC[C@@H]1NC(=O)[C@H](Cc2ccccc2)NC(=O)CNC(=O)[C@H](CC(C)C)NC(=O)[C@@H](NC(=O)[C@@H](N)CC(=O)O)CSSC[C@@H]2NC(=O)[C@@H]3CSSC[C@@H](C(=O)N[C@@H](CCCCN)C(=O)N[C@@H](Cc4ccc(O)cc4)C(=O)N[C@H](C(=O)N[C@@H](Cc4ccccc4)C(N)=O)C(C)C)NC(=O)[C@H](Cc4c[nH]c5ccccc45)NC(=O)[C@H](CCCCN)NC(=O)[C@H](Cc4c[nH]cn4)NC(=O)[C@H]([C@@H](C)O)NC(=O)[C@H](CCCNC(=N)N)NC(=O)[C@H](CO)NC(=O)[C@H](CSSC[C@H](NC(=O)[C@H](CCCCN)NC(=O)[C@H](CCCNC(=N)N)NC1=O)C(=O)N[C@@H](CC(=O)O)C(=O)N1CCC[C@H]1C(=O)N[C@@H](CC(=O)O)C(=O)N[C@@H](CC(N)=O)C(=O)N[C@@H](CC(=O)O)C(=O)N[C@@H](CCCCN)C(=O)N3)NC(=O)[C@H](C(C)C)NC(=O)[C@H](CC(C)C)NC(=O)[C@H](CC(N)=O)NC(=O)[C@@H]1CCCN1C(=O)[C@H](CCCNC(=N)N)NC2=O [SEQ ID NO: 119, [Asp10]GpTx-1] (H-DCLGFMRKCDPDNDKCCRPNLVCSRTHKWCKYVF-NH2; disulfide 2-17, 9-23, 16-30) | 220 nM | – | –
2 | [Glu18;desAsn20]GpTx-1 (DCLGFMRKCIPDNDKCCEGLVCSRTHKWCKYVF-NH2; ends and bridges not checked) | – | – | activity against NaV1.7 relative to GpTx-1, in words: without substantial impact on the activity
3 | CC[C@H](C)[C@@H]1NC(=O)[C@@H]2CSSC[C@@H]3NC(=O)[C@H](C(C)C)NC(=O)[C@H](CC(C)C)NC(=O)[C@H](CC(N)=O)NC(=O)[C@@H]4CCCN4C(=O)[C@H](CCCNC(=N)N)NC(=O)[C@H](CSSC[C@H](NC(=O)[C@@H](N)CC(=O)O)C(=O)N[C@@H](CC(C)C)C(=O)NCC(=O)N[C@@H](CCCNC(=N)N)C(=O)N[C@@H](CCSC)C(=O)N[C@@H](CCCNC(=N)N)C(=O)N[C@@H](CCCCN)C(=O)N2)NC(=O)[C@H](CSSC[C@@H](C(=O)N[C@@H](CCCCN)C(=O)N[C@@H](Cc2ccc(O)cc2)C(=O)N[C@H](C(=O)N[C@@H](Cc2ccccc2)C(N)=O)C(C)C)NC(=O)[C@H](Cc2c[nH]c4ccccc24)NC(=O)[C@H](CCCCN)NC(=O)[C@H](Cc2c[nH]cn2)NC(=O)[C@H]([C@@H](C)O)NC(=O)[C@H](CCCNC(=N)N)NC(=O)[C@H](CO)NC3=O)NC(=O)[C@H](CCCCN)NC(=O)[C@H](CC(=O)O)NC(=O)[C@H](CC(N)=O)NC(=O)[C@H](CC(=O)O)NC(=O)[C@@H]2CCCN2C1=O [SEQ ID NO: 156] (H-DCLGRMRKCIPDNDKCCRPNLVCSRTHKWCKYVF-NH2; disulfide 2-17, 9-23, 16-30) | – | 3630 nM | –
4 | CC[C@H](C)[C@@H]1NC(=O)[C@@H]2CSSC[C@@H]3NC(=O)[C@H](C(C)C)NC(=O)[C@H](CC(C)C)NC(=O)[C@H](CC(N)=O)NC(=O)[C@@H]4CCCN4C(=O)[C@H](CCCNC(=N)N)NC(=O)[C@H](CSSC[C@H](NC(=O)[C@@H](N)CCC(=O)O)C(=O)N[C@@H](CC(C)C)C(=O)NCC(=O)N[C@@H](Cc4ccccc4)C(=O)N[C@@H](CCSC)C(=O)N[C@@H](CCCNC(=N)N)C(=O)N[C@@H](CCCCN)C(=O)N2)NC(=O)[C@H](CSSC[C@@H](C(=O)N[C@@H](CCCCN)C(=O)N[C@@H](Cc2ccc(O)cc2)C(=O)N[C@H](C(=O)N[C@@H](Cc2ccccc2)C(N)=O)C(C)C)NC(=O)[C@H](Cc2c[nH]c4ccccc24)NC(=O)[C@H](CCCCN)NC(=O)[C@H](Cc2c[nH]cn2)NC(=O)[C@H]([C@@H](C)O)NC(=O)[C@H](CCCNC(=N)N)NC(=O)[C@H](CO)NC3=O)NC(=O)[C@H](CCCCN)NC(=O)[C@H](CC(=O)O)NC(=O)[C@H](CC(N)=O)NC(=O)[C@H](CC(=O)O)NC(=O)[C@@H]2CCCN2C1=O [SEQ ID NO: 18] (H-ECLGFMRKCIPDNDKCCRPNLVCSRTHKWCKYVF-NH2; disulfide 2-17, 9-23, 16-30) | – | 220 nM | –
5 | CC[C@H](C)[C@@H]1NC(=O)[C@@H]2CSSC[C@@H]3NC(=O)[C@H](C)NC(=O)[C@H](CC(C)C)NC(=O)[C@H](CC(N)=O)NC(=O)[C@@H]4CCCN4C(=O)[C@H](CCCNC(=N)N)NC(=O)[C@H](CSSC[C@H](NC(=O)[C@@H](N)CC(=O)O)C(=O)N[C@@H](CC(C)C)C(=O)NCC(=O)N[C@@H](Cc4ccccc4)C(=O)N[C@@H](CCSC)C(=O)N[C@@H](CCCNC(=N)N)C(=O)N[C@@H](CCCCN)C(=O)N2)NC(=O)[C@H](CSSC[C@@H](C(=O)N[C@@H](CCCCN)C(=O)N[C@@H](Cc2ccc(O)cc2)C(=O)N[C@H](C(=O)N[C@@H](Cc2ccccc2)C(N)=O)C(C)C)NC(=O)[C@H](Cc2c[nH]c4ccccc24)NC(=O)[C@H](CCCCN)NC(=O)[C@H](Cc2c[nH]cn2)NC(=O)[C@H]([C@@H](C)O)NC(=O)[C@H](CCCNC(=N)N)NC(=O)[C@H](CO)NC3=O)NC(=O)[C@H](CCCCN)NC(=O)[C@H](CC(=O)O)NC(=O)[C@H](CC(N)=O)NC(=O)[C@H](CC(=O)O)NC(=O)[C@@H]2CCCN2C1=O [compound 8] (H-DCLGFMRKCIPDNDKCCRPNLACSRTHKWCKYVF-NH2; disulfide 2-17, 9-23, 16-30) | – | – | IC50 (IonWorks Quattro, Use): 380 nM
6 | CC[C@H](C)[C@@H]1NC(=O)[C@@H]2CSSC[C@@H]3NC(=O)[C@H](C(C)C)NC(=O)[C@H](CC(C)C)NC(=O)[C@H](CC(N)=O)NC(=O)[C@@H]4CCCN4C(=O)[C@H](CCCNC(=N)N)NC(=O)[C@H](CSSC[C@H](NC(=O)[C@@H](N)CCCCN)C(=O)N[C@@H](CC(C)C)C(=O)NCC(=O)N[C@@H](Cc4ccccc4)C(=O)N[C@@H](CCSC)C(=O)N[C@@H](CCCNC(=N)N)C(=O)N[C@@H](CCCCN)C(=O)N2)NC(=O)[C@H](CSSC[C@@H](C(=O)N[C@@H](CCCCN)C(=O)N[C@@H](Cc2ccc(O)cc2)C(=O)N[C@H](C(=O)N[C@@H](Cc2ccccc2)C(N)=O)C(C)C)NC(=O)[C@H](Cc2c[nH]c4ccccc24)NC(=O)[C@H](CCCCN)NC(=O)[C@H](Cc2c[nH]cn2)NC(=O)[C@H]([C@@H](C)O)NC(=O)[C@H](CCCNC(=N)N)NC(=O)[C@H](CO)NC3=O)NC(=O)[C@H](CCCCN)NC(=O)[C@H](CC(=O)O)NC(=O)[C@H](CC(N)=O)NC(=O)[C@H](CC(=O)O)NC(=O)[C@@H]2CCCN2C1=O [SEQ ID NO: 37] (H-KCLGFMRKCIPDNDKCCRPNLVCSRTHKWCKYVF-NH2; disulfide 2-17, 9-23, 16-30) | – | 150 nM | –
7 | CC[C@H](C)[C@@H]1NC(=O)[C@@H]2CSSC[C@@H]3NC(=O)[C@H](C(C)C)NC(=O)[C@H](CC(C)C)NC(=O)[C@H](C)NC(=O)[C@@H]4CCCN4C(=O)[C@H](CCCNC(=N)N)NC(=O)[C@H](CSSC[C@H](NC(=O)[C@@H](N)CC(=O)O)C(=O)N[C@@H](CC(C)C)C(=O)NCC(=O)N[C@@H](Cc4ccccc4)C(=O)N[C@@H](CCSC)C(=O)N[C@@H](CCCNC(=N)N)C(=O)N[C@@H](CCCCN)C(=O)N2)NC(=O)[C@H](CSSC[C@@H](C(=O)N[C@@H](CCCCN)C(=O)N[C@@H](Cc2ccc(O)cc2)C(=O)N[C@H](C(=O)N[C@@H](Cc2ccccc2)C(N)=O)C(C)C)NC(=O)[C@H](Cc2c[nH]c4ccccc24)NC(=O)[C@H](CCCCN)NC(=O)[C@H](Cc2c[nH]cn2)NC(=O)[C@H]([C@@H](C)O)NC(=O)[C@H](CCCNC(=N)N)NC(=O)[C@H](CO)NC3=O)NC(=O)[C@H](CCCCN)NC(=O)[C@H](CC(=O)O)NC(=O)[C@H](CC(N)=O)NC(=O)[C@H](CC(=O)O)NC(=O)[C@@H]2CCCN2C1=O [compound 7] (H-DCLGFMRKCIPDNDKCCRPALVCSRTHKWCKYVF-NH2; disulfide 2-17, 9-23, 16-30) | 690 nM | – | –
8 | CC[C@H](C)[C@@H]1NC(=O)[C@@H]2CSSC[C@@H]3NC(=O)[C@H](C(C)C)NC(=O)[C@H](CC(C)C)NC(=O)[C@H](CC(N)=O)NC(=O)[C@@H]4CCCN4C(=O)[C@H](CCCNC(=N)N)NC(=O)[C@H](CSSC[C@H](NC(=O)[C@@H](N)CC(=O)O)C(=O)N[C@@H](CC(C)C)C(=O)NCC(=O)N[C@@H](Cc4ccccc4)C(=O)N[C@@H](CCSC)C(=O)N[C@@H](CCCNC(=N)N)C(=O)N[C@@H](CCCCN)C(=O)N2)NC(=O)[C@H](CSSC[C@@H](C(=O)N[C@@H](CCCCN)C(=O)N[C@@H](Cc2ccc(O)cc2)C(=O)N[C@H](C(=O)N[C@@H](Cc2ccccc2)C(N)=O)C(C)C)NC(=O)[C@H](Cc2c[nH]c4ccccc24)NC(=O)[C@H](CCCCN)NC(=O)[C@H](Cc2c[nH]cn2)NC(=O)[C@H]([C@@H](C)O)NC(=O)[C@H](CCCNC(=N)N)NC(=O)[C@H](CO)NC3=O)NC(=O)[C@H](CCCCN)NC(=O)[C@H](CC(=O)O)NC(=O)[C@H](CC(N)=O)NC(=O)[C@H](CCCNC(=N)N)NC(=O)[C@@H]2CCCN2C1=O [compound 67] (H-DCLGFMRKCIPRNDKCCRPNLVCSRTHKWCKYVF-NH2; disulfide 2-17, 9-23, 16-30) | 110 nM | – | –
9 | CSCC[C@@H]1NC(=O)[C@H](Cc2ccccc2)NC(=O)CNC(=O)[C@H](CC(C)C)NC(=O)[C@@H](NC(=O)[C@@H](N)CC(=O)O)CSSC[C@@H]2NC(=O)[C@@H]3CSSC[C@@H](C(=O)N[C@@H](CCCCN)C(=O)N[C@@H](Cc4ccc(O)cc4)C(=O)N[C@H](C(=O)N[C@@H](Cc4ccccc4)C(N)=O)C(C)C)NC(=O)[C@H](Cc4c[nH]c5ccccc45)NC(=O)[C@H](CCCCN)NC(=O)[C@H](Cc4c[nH]cn4)NC(=O)[C@H]([C@@H](C)O)NC(=O)[C@H](CCCNC(=N)N)NC(=O)[C@H](CO)NC(=O)[C@H](CSSC[C@H](NC(=O)[C@H](CCCCN)NC(=O)[C@H](CCCNC(=N)N)NC1=O)C(=O)N[C@@H](CCC(=O)O)C(=O)N1CCC[C@H]1C(=O)N[C@@H](CC(=O)O)C(=O)N[C@@H](CC(N)=O)C(=O)N[C@@H](CC(=O)O)C(=O)N[C@@H](CCCCN)C(=O)N3)NC(=O)[C@H](C(C)C)NC(=O)[C@H](CC(C)C)NC(=O)[C@H](CC(N)=O)NC(=O)[C@@H]1CCCN1C(=O)[C@H](CCCNC(=N)N)NC2=O [SEQ ID NO: 146, [Glu10]GpTx-1] (H-DCLGFMRKCEPDNDKCCRPNLVCSRTHKWCKYVF-NH2; disulfide 2-17, 9-23, 16-30) | – | – | IC50 (IonWorks Quattro, Use): 90 nM
